Data set [1] concerns the target SARS-CoV-2 Main Protease (SARS-CoV-2) (UniProt P0DTD1).
Data set [2] shares this target. This is another data set of the same source.

The record followed here is the COVID Moonshot data (paper PMC11187573), “Identification of SARS-CoV-2 Mpro inhibitors through deep reinforcement learning for de novo drug design and computational chemistry approaches” (RSC Medicinal Chemistry, 2024).

In general, inhibition refers to the change of the read-out against control, counted positive when it falls. `C#Cc1ccc(CNC(=O)N2CCOCC2)cc1` showed a relative solubility at 20 uM of 1 and a relative solubility at 100 uM of 1. Also, the inhibition in data set [1] (20.0 µM) was 1.4%. In addition, in data set [1] (50.0 µM), the inhibition was determined as 2.46%. In addition, the inhibition in data set [2] (20.0 µM) came to 0%. Besides, the inhibition in data set [2] (50.0 µM) is 0%.

`Cn1cnnc1NC(=O)Cc1cccc(Cl)c1`: the relative solubility at 20 uM amounted to 1.01 and the relative solubility at 100 uM was determined as 1. In data set [1] (20.0 µM), the inhibition amounted to 5.99%. Further, the inhibition in data set [1] (50.0 µM) is -26%. Moreover, in data set [2] (50.0 µM), the inhibition is -10.5%.

Turning to `O=C(NCC1COc2ccccc2O1)c1cc(=O)[nH]c2ccc(F)cc12` (stereo not given), the relative solubility at 20 uM was 1 and the relative solubility at 100 uM was found to be 0.79. Also, the inhibition in data set [1] (20.0 µM) came to 3.84%. The inhibition in data set [1] (50.0 µM) turned out to be 18.6%. Moreover, in data set [2] (50.0 µM), the inhibition amounted to 16.4%.

Consider `O=C(NC(Cc1ccccc1)C(=O)NCc1ccno1)OCc1ccccc1` (stereo not given), for which the relative solubility at 20 uM was 0.98 and the relative solubility at 100 uM was 0.85. The inhibition in data set [1] (50.0 µM) was 50.6%. The inhibition in data set [2] (20.0 µM) came to 0%. In data set [2] (50.0 µM), the inhibition is 0%.

Regarding `O=C(c1cc(=O)[nH]c2ccccc12)N1CCN(c2ccccc2F)CC1`, the relative solubility at 20 uM worked out at 0.98 and the relative solubility at 100 uM is 0.99. The inhibition in data set [1] (20.0 µM) worked out at 50.7%. In addition, the inhibition in data set [1] (50.0 µM) worked out at 75.6%. For the same compound, the inhibition in data set [2] (50.0 µM) stood at 46.4%.

With `O=C1/C(=C/c2ccc(O)cc2)c2ccccc2C(=O)N1Cc1ccc2c(c1)OCO2`, the relative solubility at 20 uM was 0.62 and the relative solubility at 100 uM is 0.48. For the same compound, the inhibition in data set [1] (20.0 µM) was 6.21%. Further, the inhibition in data set [1] (50.0 µM) was -3.72%. Moreover, in data set [2] (50.0 µM), the inhibition was found to be 20.1%.

On to `CCSCC1CCN(c2ccc(S(N)(=O)=O)cc2)CC1`, for which the relative solubility at 20 uM turned out to be 1 and the relative solubility at 100 uM amounted to 1.01. The inhibition in data set [1] (50.0 µM) is -25.8%. In addition, the inhibition in data set [2] (20.0 µM) amounted to 26%. Besides, the inhibition in data set [2] (50.0 µM) worked out at 40.2%.

`CC(C)N(C)C(=O)C1CCN(C(=O)CCl)CC1` gave a relative solubility at 20 uM of 1 and a relative solubility at 100 uM of 1. The inhibition in data set [1] (20.0 µM) is 17.3%. Besides, the inhibition in data set [1] (50.0 µM) came to 38.8%. Besides, in data set [2] (20.0 µM), the inhibition is -0.0976%.

`O=C(Nc1nncn1C1CC1)[C@H]1CCOc2ccc(Cl)cc21` (stereo in doubt) returned a relative solubility at 20 uM of 1.01 and a relative solubility at 100 uM of 1. Further, the inhibition in data set [1] (20.0 µM) was -13.3%. Besides, the inhibition in data set [1] (50.0 µM) is -7.61%. In addition, the inhibition in data set [2] (50.0 µM) was -19.4%.

Take `NC1=Nc2nc3ccccc3n2C(c2ccc(-c3nc4ccccc4s3)o2)N1` (stereo not given): the relative solubility at 20 uM amounted to 0.53 and the relative solubility at 100 uM is 0.23. Besides, the inhibition in data set [1] (20.0 µM) is -25.2%. Further, in data set [1] (50.0 µM), the inhibition is -3.34%. The inhibition in data set [2] (50.0 µM) is 38.8%.

With `Cc1ccncc1NC(=O)CC(C)(C)NC(=O)c1cccc2[nH]ccc12`, the relative solubility at 20 uM came out at 0.99 and the relative solubility at 100 uM was 0.99. Moreover, in data set [1] (50.0 µM), the inhibition was -10.4%. Besides, the inhibition in data set [2] (20.0 µM) came to 0%. For the same compound, the inhibition in data set [2] (50.0 µM) is 0%.

Consider `CC(=O)N[C@@H](Cc1ccc(O)cc1)C(=O)NCc1ccc(Br)cc1` (stereo in doubt), for which the relative solubility at 20 uM is 1 and the relative solubility at 100 uM amounted to 0.99. In addition, the inhibition in data set [1] (20.0 µM) is -20.1%. Also, the inhibition in data set [1] (50.0 µM) was -24.8%. Also, the inhibition in data set [2] (20.0 µM) came to 0%.

The compound `Cc1ccncc1NC(=O)C1C2CCOCC21` (stereo not given) yielded a relative solubility at 20 uM of 1 and a relative solubility at 100 uM of 1. For the same compound, the inhibition in data set [1] (20.0 µM) was -18.9%. Also, in data set [1] (50.0 µM), the inhibition was -10.8%. For the same compound, the inhibition in data set [2] (50.0 µM) was 0%.

In the case of `CN(C)C/C=C/C(=O)Nc1c[nH]c2ccccc12`, the relative solubility at 20 uM was found to be 1 and the relative solubility at 100 uM is 1. Besides, the inhibition in data set [1] (20.0 µM) came to 5.8%. Further, the inhibition in data set [1] (50.0 µM) came out at 22.5%. Also, the inhibition in data set [2] (20.0 µM) turned out to be 0%.

`C=CC(=O)N(c1ccc(C2(C)CC2)cc1)C(C(=O)Nc1cccc(CC)c1)c1cccnc1` (stereo not given) gave a relative solubility at 20 uM of 0.86 and a relative solubility at 100 uM of 0.65. For the same compound, the inhibition in data set [1] (50.0 µM) stood at 21%. Moreover, the inhibition in data set [2] (20.0 µM) came to 4.53%. In addition, in data set [2] (50.0 µM), the inhibition stood at 47.2%.

As usually defined, the IC50 is the concentration needed to halve the response being measured. A low value points to greater potency. For `CN(C)c1ccc(N(Cc2ccsc2)C(=O)Cn2nnc3ccccc32)cc1`, the relative solubility at 20 uM was 0.92 and the relative solubility at 100 uM was found to be 0.48. The inhibition in data set [1] (20.0 µM) was 84.4%. Further, in data set [1] (50.0 µM), the inhibition was 90.5%. The IC50 in data set [2] was 5.37 µM. The inhibition in data set [2] (50.0 µM) was found to be 90.3%.

On to `CCC(NC(=O)C(C)n1cncn1)c1ccccc1OCC(=O)N1CCCC1` (stereo not given), for which the relative solubility at 20 uM stood at 1 and the relative solubility at 100 uM turned out to be 0.99. The inhibition in data set [1] (20.0 µM) was -0.907%. In addition, the inhibition in data set [1] (50.0 µM) amounted to 0.701%. In addition, the inhibition in data set [2] (20.0 µM) was 0%. In addition, in data set [2] (50.0 µM), the inhibition was 0%.

In turn, `C=CC(=O)N(c1ccc(C(C)(C)C)cc1)C(C(=O)Nc1ccc(OC)cc1)c1cccnc1` (stereo not given) had a relative solubility at 20 uM of 0.95 and a relative solubility at 100 uM of 0.71. Moreover, the inhibition in data set [1] (50.0 µM) came out at 12%. The inhibition in data set [2] (20.0 µM) is 0%. Besides, the inhibition in data set [2] (50.0 µM) stood at 0%.

Take `N#Cc1cccc(NC(=O)Nc2cccnc2)c1`: the relative solubility at 20 uM is 1 and the relative solubility at 100 uM is 1. Besides, the inhibition in data set [1] (20.0 µM) turned out to be 6.21%. Besides, the inhibition in data set [1] (50.0 µM) was 10.3%. Moreover, in data set [2] (20.0 µM), the inhibition stood at 0%.

`O=C(Nc1ccc([N+](=O)[O-])cc1Cl)c1cccc(Cl)c1` returned a relative solubility at 20 uM of 0.76 and a relative solubility at 100 uM of 0.57. In addition, the inhibition in data set [1] (20.0 µM) was -10.8%. The inhibition in data set [1] (50.0 µM) was -11.4%. Further, in data set [2] (20.0 µM), the inhibition was 1.31%.

As for `Cc1cccc(NC(=O)C(C#N)C(=O)C2CCCC2)c1` (stereo not given), the relative solubility at 20 uM turned out to be 1 and the relative solubility at 100 uM was found to be 1. Further, the inhibition in data set [1] (50.0 µM) is -8.28%. In data set [2] (20.0 µM), the inhibition was 0.78%. Also, the inhibition in data set [2] (50.0 µM) was 0%.

As to `COc1ccccc1OC(C)CNC(=O)c1cc(=O)[nH]c2cc(F)ccc12` (stereo not given), the relative solubility at 20 uM stood at 1 and the relative solubility at 100 uM turned out to be 0.99. In addition, the inhibition in data set [1] (20.0 µM) was found to be 20%. Also, the inhibition in data set [1] (50.0 µM) was found to be 59%. In addition, the inhibition in data set [2] (50.0 µM) is 5.65%.

Compound `Cc1ccncc1-c1nnc(-c2cccc(Cl)c2)o1` had a relative solubility at 20 uM of 1 and a relative solubility at 100 uM of 0.99. Also, in data set [1] (20.0 µM), the inhibition stood at 1.73%. Further, the inhibition in data set [1] (50.0 µM) came to 13.8%. In addition, the inhibition in data set [2] (50.0 µM) turned out to be 0.631%.

On to `Cc1ccc(NCc2cc(NC(=O)OC(C)(C)C)ccc2Br)cn1`, for which the relative solubility at 20 uM amounted to 0.9 and the relative solubility at 100 uM was 0.7. Moreover, in data set [1] (20.0 µM), the inhibition is -3.3%. In addition, the inhibition in data set [1] (50.0 µM) was 9.52%. Further, in data set [2] (50.0 µM), the inhibition was determined as 35.9%.

In turn, `O=C(c1cc(=O)[nH]c2ccccc12)N1CCN(c2ccc(F)cc2)CC1` returned a relative solubility at 20 uM of 0.99 and a relative solubility at 100 uM of 0.99. In addition, the inhibition in data set [1] (20.0 µM) came out at 57%. Also, the inhibition in data set [1] (50.0 µM) came out at 78.5%. Further, in data set [2], the IC50 was determined as 52.7 µM. Moreover, the inhibition in data set [2] (50.0 µM) was 52.3%.

As for `CN(C(=O)C1CCOc2ccc(Cl)cc21)c1ccc(Cl)cn1` (stereo not given), the relative solubility at 20 uM came to 0.99 and the relative solubility at 100 uM came out at 0.98. Also, the inhibition in data set [1] (20.0 µM) is 0.542%. In addition, in data set [1] (50.0 µM), the inhibition was 9.88%. In addition, the inhibition in data set [2] (50.0 µM) is 0%.

As to `CC(OCC1CCCCO1)C(=O)N(CCc1ccccc1)Cc1cccnc1` (stereo not given), the relative solubility at 20 uM was determined as 1 and the relative solubility at 100 uM was found to be 1. Further, the inhibition in data set [1] (50.0 µM) was -20.6%. Moreover, the inhibition in data set [2] (20.0 µM) came out at 0%. In addition, the inhibition in data set [2] (50.0 µM) is 0%.

The compound `Cc1ccncc1NC(=O)Cn1ccc2ccc(Cl)cc21` displayed a relative solubility at 20 uM of 0.99 and a relative solubility at 100 uM of 0.98. In data set [1] (20.0 µM), the inhibition stood at 30.6%. Also, the inhibition in data set [1] (50.0 µM) amounted to 27%. The compound also had an IC50 in data set [2] of 20 µM. Also, the inhibition in data set [2] (50.0 µM) is 77.4%.
